# Experimental data published in patent US20230165974A1, “COMPOSITIONS AND METHODS FOR DELIVERING PHARMACEUTICALLY ACTIVE AGENTS” (MEDIMMUNE, LLC, priority 2020, published 2023).
# Tests used:
# H1299 cells = test: Toxicity of polymer materials in vitro (metabolic/luminescent viability assay); assay type: cell-based; conditions: H1299, 16-hour exposure, polymer in OPTI-MEM
# Experimental: Material toxicity was assessed using live dead assays.
# H1299 cells were seeded in 96-well plates (10000/well). After a 24 h recovery period, cells were treated with 0.1 to 2 μg of PEI (25K, Polyscience, Inc., Philadelphia Pa.), PLL (Alamanda Polymers, Inc., Huntsville Ala., 5 kDa), and P: PLL(M) 33, P: PLL(MN) 33, and P: PLL(TM) 33″ prepared in OPTI-MEM. After a 16-hour exposure, cells were analysed using a live/dead stain or metabolic assay. For the live/dead assay, 10 μL of Calcein AM (2 mM in DMSO) and 5 of propidium iodide (2 mM DMSO) stock solutions were dissolved in 5 mL of PBS. The cells were then washed with PBS twice and staining solution added (100 μL/well). After a 30-minute incubation period at 37° C., the cells were imaged using an IncuCyte plate reader (Sartorius). Alternatively, metabolic assays were performed using Celriter-Glo·Luminescent Assay using the manufacturers standard protocol. Luminescence measurements were collected using a PHERAStar plate reader (BMG LabTech) and IC50 doses were derived by fitting the data in Microsoft excel.
# C2C12 = test: as above; assay type: cell-based
substance,measurement,setting,value
Poly-L-lysine [P: PLL],Toxicity/IC50,H1299 cells,0.21 μg/well
same,Toxicity/IC50,C2C12,0.33 μg/well
